This is an account of results in patent publication US12075788B2, “Antimicrobial nano-emulsion” (Laboratoire M2, priority 2019, dated 2024).

In data set [1] the test system is Erwinia amylovora streptomycin resistant strain (1535m5). The experiment in a line: Detached apple flower assay for fire blight blossom infection, streptomycin resistant strain. The class given is in vivo. Particulars: Streptomycin 17 0.6 g/L; 7 days after inoculation; FIG. 12. As to the method: (§1) Refrigerated dormant 2-year potted apple trees (cv Gala) were forced to bloom at room temperature in late March 2019. Fresh individual flowers were handpicked as they bloomed and placed in small vials containing 10% sucrose, ensuring their pedicels were submerged. The vials were inserted in racks that were placed in small air-tight boxes for incubation at 25° C. A thin layer of a glycerol water solution (33% w/w) in each box maintained constant humidity. Flowers were individually inoculated directly in the hypanthium with 10 μL of a 10^5 CFU/mL suspension of Erwinia amylovora in PBS with Tween 20 at 0.1% w/w. Half the flowers were inoculated with a streptomycin resistant strain (1535m5) collected in Oregon, USA, and the other half with a local streptomycin sensitive strain (435s). […] Approximately 30 minutes after inoculation, 10 randomly selected individual flowers of each strain organized in 5 blocks were flooded with 32 μL of each treatment. […] Severity scores excluding streptomycin treated flowers were analyzed with a cumulative link mixed model (clmm) in the “ordinal” package of R(Christensen 2015) using blocks as a random effect. Because of separation, data with streptomycin were analyzed with the “bract” function of the package “brglm2” under R using mean bias reduction (Kosmidis, Pagui, and Sartori 2019). […]

Data set [2] has as its system Erwinia amylovora streptomycin sensitive strain (435s). The experiment in a line: Detached apple flower assay for fire blight blossom infection, streptomycin sensitive strain. The class given is in vivo. As to conditions: Streptomycin 17 0.6 g/L; 7 days after inoculation; FIG. 12. As for the experimental part: as §1
For data set [3] the following is noted: cited from earlier work.
The conditions of data set [4]: concentration similar to body care products; cited from earlier work.
The conditions of data set [5]: Rats fed 300 mg per day; cited from earlier work.

Take `[H]/N=C(/N)N[C@H]1[C@H](O)[C@@H](O)[C@H](O[C@@H]2O[C@@H](C)[C@](O)(C=O)[C@H]2O[C@@H]2O[C@@H](CO)[C@H](O)[C@@H](O)[C@@H]2NC)[C@@H](N/C(N)=N\[H])[C@@H]1O` [streptomycin]: the “effect on fire blight on flowers” value is reported as “no effect” in data set [1] and “strongly inhibited fire blight” in data set [2].

In the case of `C/C=C/C=C/C(=O)[O-].[K+]` [potassium sorbate], the acceptable daily intake in data set [3] (European Food Safety Authority (EFSA)) is listed as 3 mg per kg of body weight per day. In data set [3] (USA), the “maximum acceptable daily intake for humans” value is 25 mg per kg of body weight per day. Moreover, the irritation and sensitization entry in data set [4] is “practically non-irritating and non-sensitizing”. Besides, the effects of feeding result in data set [5] is “no observed deleterious effects”.
